The source made the active and inactive calls. The rule behind the calls is not given here.
What was measured:
Mus musculus [1] = assay: Antiinflammatory activity in ICR mouse assessed as reduction in LPS-induced neutrophil level in BALF at 0.5 mg/kg, INH administered 18 hrs before LPS-stimulation and measured after 24 hrs by FACS analysis relative to control; format: functional; conditions: time 42 hrs
Mus musculus [2] = assay: Antiinflammatory activity in ICR mouse assessed as reduction in LPS-induced macrophage level in BALF at 0.5 mg/kg, INH administered 18 hrs before LPS-stimulation and measured after 24 hrs by FACS analysis relative to control; format: functional; conditions: time 42 hrs
Mus musculus [3] = assay: Antiinflammatory activity in ICR mouse assessed as reduction in LPS-induced lymphocyte level in BALF at 0.5 mg/kg, INH administered 18 hrs before LPS-stimulation and measured after 24 hrs by FACS analysis relative to control; format: functional; conditions: time 42 hrs
Mus musculus [4] = assay: Antiinflammatory activity in ICR mouse assessed as reduction in LPS-induced neutrophil level in BALF at 0.5 mg/kg, ip administered 18 hrs before LPS-stimulation and measured after 24 hrs by FACS analysis relative to control; format: functional; conditions: time 42 hrs
Mus musculus [5] = assay: Antiinflammatory activity in ICR mouse assessed as reduction in LPS-induced macrophage level in BALF at 0.5 mg/kg, ip administered 18 hrs before LPS-stimulation and measured after 24 hrs by FACS analysis relative to control; format: functional; conditions: time 42 hrs
Mus musculus [6] = assay: Antiinflammatory activity in ICR mouse assessed as reduction in LPS-induced lymphocyte level in BALF at 0.5 mg/kg, ip administered 18 hrs before LPS-stimulation and measured after 24 hrs by FACS analysis relative to control; format: functional; conditions: time 42 hrs
Mus musculus [7] = assay: Antiinflammatory activity in ICR mouse assessed as reduction in LPS-induced neutrophil infiltration in lungs at 0.5 mg/kg, INH administered 18 hrs before LPS-stimulation and measured after 24 hrs by H and E staining based imaging analysis relative to control; format: functional; conditions: time 42 hrs
Mus musculus [8] = assay: Antiinflammatory activity in ICR mouse assessed as reduction in LPS-induced neutrophil infiltration in lungs at 0.5 mg/kg, ip administered 18 hrs before LPS-stimulation and measured after 24 hrs by H and E staining based imaging analysis relative to control; format: functional; conditions: time 42 hrs
Mus musculus [9] = assay: Antiinflammatory activity in ICR mouse assessed as reduction in LPS-induced IL-1beta mRNA expression in lungs at 0.5 mg/kg, INH administered 18 hrs before LPS-stimulation and measured after 24 hrs by qRT-PCR analysis; format: functional, organism-based; conditions: time 42.0 hrs
Mus musculus [10] = assay: Antiinflammatory activity in ICR mouse assessed as reduction in LPS-induced IL-8 mRNA expression in lungs at 0.5 mg/kg, INH administered 18 hrs before LPS-stimulation and measured after 24 hrs by qRT-PCR analysis; format: functional, organism-based; conditions: time 42.0 hrs
Mus musculus [11] = assay: Antiinflammatory activity in ICR mouse assessed as reduction in LPS-induced TGF-beta1 mRNA expression in lungs at 0.5 mg/kg, INH administered 18 hrs before LPS-stimulation and measured after 24 hrs by qRT-PCR analysis; format: functional, organism-based; conditions: time 42.0 hrs
Mus musculus [12] = assay: Antiinflammatory activity in ICR mouse assessed as reduction in LPS-induced MMP-9 mRNA expression in lungs at 0.5 mg/kg, INH administered 18 hrs before LPS-stimulation and measured after 24 hrs by qRT-PCR analysis; format: functional, organism-based; conditions: time 42.0 hrs
Mus musculus [13] = assay: Antiinflammatory activity in ICR mouse assessed as reduction in LPS-induced IL-1beta mRNA expression in lungs at 0.5 mg/kg, ip administered 18 hrs before LPS-stimulation and measured after 24 hrs by qRT-PCR analysis; format: functional, organism-based; conditions: time 42.0 hrs
Mus musculus [14] = assay: Antiinflammatory activity in ICR mouse assessed as reduction in LPS-induced IL-8 mRNA expression in lungs at 0.5 mg/kg, ip administered 18 hrs before LPS-stimulation and measured after 24 hrs by qRT-PCR analysis; format: functional, organism-based; conditions: time 42.0 hrs
Mus musculus [15] = assay: Antiinflammatory activity in ICR mouse assessed as reduction in LPS-induced TGF-beta1 mRNA expression in lungs at 0.5 mg/kg, ip administered 18 hrs before LPS-stimulation and measured after 24 hrs by qRT-PCR analysis; format: functional, organism-based; conditions: time 42.0 hrs
Mus musculus [16] = assay: Antiinflammatory activity in ICR mouse assessed as reduction in LPS-induced MMP-9 mRNA expression in lungs at 0.5 mg/kg, ip administered 18 hrs before LPS-stimulation and measured after 24 hrs by qRT-PCR analysis; format: functional, organism-based; conditions: time 42.0 hrs
Mus musculus [17] = assay: Antiinflammatory activity in ICR mouse assessed as reduction in LPS-induced IL-1beta expression in lungs at 0.5 mg/kg, INH administered 18 hrs before LPS-stimulation and measured after 24 hrs by Western blot analysis; format: functional, organism-based; conditions: time 42.0 hrs
Mus musculus [18] = assay: Antiinflammatory activity in ICR mouse assessed as reduction in LPS-induced caspase-1 expression in lungs at 0.5 mg/kg, INH administered 18 hrs before LPS-stimulation and measured after 24 hrs by Western blot analysis; format: functional, organism-based; conditions: time 42.0 hrs
Mus musculus [19] = assay: Antiinflammatory activity in ICR mouse assessed as reduction in LPS-induced IL-1beta expression in lungs at 0.5 mg/kg, ip administered 18 hrs before LPS-stimulation and measured after 24 hrs by Western blot analysis; format: functional, organism-based; conditions: time 42.0 hrs
Mus musculus [20] = assay: Antiinflammatory activity in ICR mouse assessed as reduction in LPS-induced caspase-1 expression in lungs at 0.5 mg/kg, ip administered 18 hrs before LPS-stimulation and measured after 24 hrs by Western blot analysis; format: functional, organism-based; conditions: time 42.0 hrs
Mus musculus [21] = assay: Antiinflammatory activity in ICR mouse assessed as reduction in LPS-induced IL-1beta expression in serum at 0.5 mg/kg, INH administered 18 hrs before LPS-stimulation and measured after 24 hrs by ELISA; format: functional, organism-based; conditions: time 42.0 hrs
Mus musculus [22] = assay: Antiinflammatory activity in ICR mouse assessed as reduction in LPS-induced IL-18 expression in serum at 0.5 mg/kg, INH administered 18 hrs before LPS-stimulation and measured after 24 hrs by ELISA; format: functional, organism-based; conditions: time 42.0 hrs
Mus musculus [23] = assay: Antiinflammatory activity in ICR mouse assessed as reduction in LPS-induced IL-1beta expression in serum at 0.5 mg/kg, ip administered 18 hrs before LPS-stimulation and measured after 24 hrs by ELISA; format: functional, organism-based; conditions: time 42.0 hrs
Mus musculus [24] = assay: Antiinflammatory activity in ICR mouse assessed as reduction in LPS-induced IL-18 expression in serum at 0.5 mg/kg, ip administered 18 hrs before LPS-stimulation and measured after 24 hrs by ELISA; format: functional, organism-based

SMILES: C[C@@H]1C[C@H]2[C@@H]3CCC4=CC(=O)C=C[C@]4(C)[C@@]3(F)[C@@H](O)C[C@]2(C)[C@@]1(O)C(=O)CO [DEXAMETHASONE]
- inhibition in vivo at 0.5 mg/kg (Mus musculus [1]): 72.9%
- inhibition in vivo at 0.5 mg/kg (Mus musculus [2]): 40.9%
- inhibition in vivo at 0.5 mg/kg (Mus musculus [3]): 30.6%
- inhibition in vivo at 0.5 mg/kg (Mus musculus [4]): 66.9%
- inhibition in vivo at 0.5 mg/kg (Mus musculus [5]): 75.1%
- inhibition in vivo at 0.5 mg/kg (Mus musculus [6]): 46.1%
- inhibition in vivo at 0.5 mg/kg (Mus musculus [7]): 55.9%
- inhibition in vivo at 0.5 mg/kg (Mus musculus [8]): 58.7%
- inhibition (Mus musculus [9]): Active
- inhibition (Mus musculus [10]): Active
- inhibition (Mus musculus [11]): Active
- inhibition (Mus musculus [12]): Active
- inhibition (Mus musculus [13]): Active
- inhibition (Mus musculus [14]): Active
- inhibition (Mus musculus [15]): Active
- inhibition (Mus musculus [16]): Active
- inhibition (Mus musculus [17]): Active
- inhibition (Mus musculus [18]): Active
- inhibition (Mus musculus [19]): Active
- inhibition (Mus musculus [20]): Active
- inhibition (Mus musculus [21]): Active
- inhibition (Mus musculus [22]): Active
- inhibition (Mus musculus [23]): Active
- inhibition (Mus musculus [24]): Active

Source: ChEMBL document CHEMBL4765476, “MCC950, a NLRP3 inhibitor, ameliorates lipopolysaccharide-induced lung inflammation in mice” (Bioorg Med Chem, 2021)
